Experimental findings from patent US20240360178A1, “MACROCYCLIC IMMUNOMODULATORS” (Bristol-Myers Squibb Company, priority 2021, published 2024) are described below.

This test deals with T1, human PD-1 (Jurkat-PD-1 cells) / PE-labeled human PD-L1-Ig (Homo sapiens, UniProt Q15116).
T1 construct: expressed in transfected cells; host or cells: Jurkat cell line over-expressing human PD-1
As to the kind of experiment: Jurkat-PD-1 Cell Binding High-Content Screening Assay (CBA); Jurkat hPD1-PDL1 assay. To be noted: Jurkat cell line over-expressing human PD-1; PE-labeled PD-L1-Ig 20 nM final; compound incubated 2 hours at 37° C.; read-out: Jurkat HPD1-PDL1 IC50. Summed up: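 Compound was added to Jurkat-PD-1 cells in DMEM plus 10% fetal calf serum and incubated 2 hours at 37° C. Binding of phycoerythrin-conjugated PD-L1-Ig (20 nM final) to the cells was imaged.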

Positions of bridges follow the written chain, without caps; N, C: chain ends. Non-standard residues stand in square brackets, D forms with d. Residues, ends and D or L forms follow the SMILES beside them. ξ: configuration not given here. *: point of attachment. Phe(4-CONH2) = NC(=O)c1ccc(C[C@H](N)C(=O)O)cc1; Phe(4-COOH) = N[C@@H](Cc1ccc(C(=O)O)cc1)C(=O)O; Phe(4-CH2NH2) = NCc1ccc(C[C@H](N)C(=O)O)cc1; Bip = N[C@@H](Cc1ccc(-c2ccccc2)cc1)C(=O)O; Phe(3-Me) = Cc1cccc(C[C@H](N)C(=O)O)c1; Ala(cPent) = N[C@@H](CC1CCCC1)C(=O)O; NMeF = CN[C@@H](Cc1ccccc1)C(=O)O; 3Pal = N[C@@H](Cc1cccnc1)C(=O)O; 4Pal = N[C@@H](Cc1ccncc1)C(=O)O; Cha = N[C@@H](CC1CCCCC1)C(=O)O; Cit = NC(=O)NCCC[C@H](N)C(=O)O; ξR = N=C(N)NCCCC(N)C(=O)O; Carboxymethyl = O=C(O)C*; NMeA = CN[C@@H](C)C(=O)O; Orn = NCCC[C@H](N)C(=O)O; Dab = NCC[C@H](N)C(=O)O; Dap = NC[C@H](N)C(=O)O; NBuGly = CCCCNCC(=O)O; Sar = CNCC(=O)O

T1 sequence (Q15116 25-288): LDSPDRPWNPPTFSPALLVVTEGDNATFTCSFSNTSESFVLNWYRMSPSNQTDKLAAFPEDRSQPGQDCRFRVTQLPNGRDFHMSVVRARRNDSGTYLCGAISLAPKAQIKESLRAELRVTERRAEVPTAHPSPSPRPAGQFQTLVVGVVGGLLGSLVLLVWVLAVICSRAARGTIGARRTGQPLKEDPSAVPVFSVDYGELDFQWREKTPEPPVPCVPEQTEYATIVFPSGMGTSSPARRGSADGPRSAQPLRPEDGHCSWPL

With `CC(C)C[C@@H]1NC(=O)[C@H](CCCNC(=N)N)NC(=O)[C@H](Cc2ccccc2)N(C)C(=O)[C@H](C)N(C)C(=O)[C@H](CCCNC(=N)N)NC(=O)[C@H](Cc2ccc(-c3ccccc3)cc2)NC(=O)[C@H](C(C)C)NC(=O)[C@H](Cc2c[nH]c3ccccc23)NC(=O)[C@H](CC(=O)O)NC(=O)[C@H](Cc2ccc(O)cc2)NC(=O)[C@H](CC(N)=O)NC(=O)CSC[C@@H](C(=O)N[C@@H](C)C(N)=O)NC(=O)[C@H]([C@@H](C)O)NC(=O)[C@H](C(C)C)NC1=O` [Example 1355] ({CH2CO}-NYDWV[Bip]R[NMeA][NMeF]RLVTCA-NH2; thioether N-14), the IC50 worked out at 410 nM.

Take `CC(C)C[C@@H]1NC(=O)[C@H](CCCNC(=N)N)NC(=O)[C@H](Cc2ccccc2)N(C)C(=O)[C@H](C)N(C)C(=O)[C@H](CCCNC(=N)N)NC(=O)[C@H](Cc2ccc(-c3ccccc3)cc2)NC(=O)[C@H](C(C)C)NC(=O)[C@H](Cc2c[nH]c3ccccc23)NC(=O)[C@H](CC(=O)O)NC(=O)[C@H](Cc2ccc(O)cc2)NC(=O)[C@H](CCC(N)=O)NC(=O)CSC[C@@H](C(=O)N[C@@H](C)C(N)=O)NC(=O)[C@H]([C@@H](C)O)NC(=O)[C@H](C(C)C)NC1=O` [Example 1323] ({CH2CO}-QYDWV[Bip]R[NMeA][NMeF]RLVTCA-NH2; thioether N-14): the IC50 turned out to be 510 nM.

For `CCCCN1CC(=O)N[C@@H](CCN)C(=O)N[C@@H](CC2CCCCC2)C(=O)N[C@@H](C(C)C)C(=O)N[C@@H](CO)C(=O)N[C@H](C(=O)N[C@@H](CCN)C(N)=O)CSCC(=O)N[C@@H]([C@@H](C)O)C(=O)N[C@@H](Cc2ccc(OCC(=O)O)cc2)C(=O)N[C@@H](CC(=O)O)C(=O)N[C@@H](Cc2cccc(C)c2)C(=O)N[C@@H](Cc2ccc(OCC(=O)O)cc2)C(=O)N[C@@H](Cc2ccc(-c3ccccc3)cc2)C(=O)N[C@@H](Cc2ccc(OCC(=O)O)cc2)C(=O)N(C)[C@@H](C)C1=O` [Example 1186] ({CH2CO}-TY(Carboxymethyl)D[Phe(3-Me)]Y(Carboxymethyl)[Bip]Y(Carboxymethyl)[NMeA][NBuGly][Dab][Cha]VSC[Dab]-NH2; thioether N-14), the IC50 was determined as 380 nM.

As for `CC(C)C[C@@H]1NC(=O)[C@H](Cc2c[nH]c3ccccc23)NC(=O)[C@H](CC(=O)O)NC(=O)[C@H](Cc2ccc(O)cc2)NC(=O)[C@H](Cc2ccccc2)NC(=O)CSC[C@@H](C(=O)NCC(N)=O)NC(=O)[C@H](CO)NC(=O)[C@H](C(C)C)NC(=O)[C@H](CC(C)C)NC(=O)[C@H](CCCNC(=N)N)NC(=O)CN(C)C(=O)[C@H](C)N(C)C(=O)[C@H](C(C)C)NC(=O)[C@H](Cc2ccc(-c3ccccc3)cc2)NC1=O` [Example 1204] ({CH2CO}-FYDWL[Bip]V[NMeA][Sar]RLVSCG-NH2; thioether N-14), the IC50 came out at 400 nM.

With `CC(C)C[C@@H]1NC(=O)[C@H](CCCNC(=N)N)NC(=O)[C@H](Cc2ccccc2)N(C)C(=O)[C@H](C)N(C)C(=O)[C@H](CCCNC(=N)N)NC(=O)[C@H](Cc2ccc(-c3ccccc3)cc2)NC(=O)[C@H](C(C)C)NC(=O)[C@H](Cc2c[nH]c3ccccc23)NC(=O)[C@H](CC(=O)O)NC(=O)[C@H](Cc2ccc(O)cc2)NC(=O)[C@H](Cc2cnc[nH]2)NC(=O)CSC[C@@H](C(=O)NCC(N)=O)NC(=O)[C@H]([C@@H](C)O)NC(=O)[C@H](C(C)C)NC1=O` [Example 1317] ({CH2CO}-HYDWV[Bip]R[NMeA][NMeF]RLVTCG-NH2; thioether N-14), the IC50 turned out to be 60 nM.

In the case of `CC(C)C[C@@H]1NC(=O)[C@H](Cc2c[nH]c3ccccc23)NC(=O)[C@H](CC(=O)O)NC(=O)[C@H](Cc2ccc(O)cc2)NC(=O)[C@H](Cc2ccc(CN)cc2)NC(=O)CSC[C@@H](C(=O)NCC(N)=O)NC(=O)[C@H](CO)NC(=O)[C@H](C(C)C)NC(=O)[C@H](CC(C)C)NC(=O)[C@H](CC(N)=O)NC(=O)CN(C)C(=O)[C@H](C)N(C)C(=O)[C@H](C(C)C)NC(=O)[C@H](Cc2ccc(-c3ccccc3)cc2)NC1=O` [Example 1160] ({CH2CO}-[Phe(4-CH2NH2)]YDWL[Bip]V[NMeA][Sar]NLVSCG-NH2; thioether N-14), the IC50 stood at 870 nM.

Regarding `CC(C)C[C@@H]1NC(=O)[C@H](CCCNC(=N)N)NC(=O)[C@H](Cc2ccccc2)N(C)C(=O)[C@H](C)N(C)C(=O)[C@H](CCCNC(=N)N)NC(=O)[C@H](Cc2ccc(-c3ccccc3)cc2)NC(=O)[C@H](C(C)C)NC(=O)[C@H](Cc2c[nH]c3ccccc23)NC(=O)[C@H](CC(=O)O)NC(=O)[C@H](Cc2ccc(O)cc2)NC(=O)[C@H](CCCNC(=N)N)NC(=O)CSC[C@@H](C(=O)NCC(N)=O)NC(=O)[C@H](CO)NC(=O)[C@H](C(C)C)NC1=O` [Example 1212] ({CH2CO}-RYDWV[Bip]R[NMeA][NMeF]RLVSCG-NH2; thioether N-14), the IC50 came out at 610 nM.

On to `CC(C)C[C@@H]1NC(=O)[C@H](CCCNC(=N)N)NC(=O)[C@H](Cc2ccccc2)N(C)C(=O)[C@H](CCCN)NC(=O)[C@H](CCCNC(=N)N)NC(=O)[C@H](Cc2ccc(-c3ccccc3)cc2)NC(=O)[C@H](C(C)C)NC(=O)[C@H](Cc2c[nH]c3ccccc23)NC(=O)[C@H](CC(=O)O)NC(=O)[C@H](Cc2ccc(O)cc2)NC(=O)[C@H](CC(N)=O)NC(=O)CSC[C@@H](C(=O)N[C@@H](C)C(N)=O)NC(=O)[C@H]([C@@H](C)O)NC(=O)[C@H](C(C)C)NC1=O` [Example 1383] ({CH2CO}-NYDWV[Bip]R[Orn][NMeF]RLVTCA-NH2; thioether N-14), for which the IC50 stood at 630 nM.

On to `CC(C)[C@@H]1NC(=O)[C@H](Cc2c[nH]c3ccccc23)NC(=O)[C@H](CC(=O)O)NC(=O)[C@H](Cc2ccncc2)NC(=O)[C@H](CN)NC(=O)CSC[C@@H](C(=O)N[C@@H](C)C(N)=O)NC(=O)[C@H]([C@@H](C)O)NC(=O)[C@H](C(C)C)NC(=O)[C@H](CC2CCCCC2)NC(=O)[C@H](CCN)NC(=O)[C@H](Cc2ccccc2)N(C)C(=O)[C@H](CCCN)NC(=O)[C@H](CCC(=O)O)NC(=O)[C@H](Cc2ccc(-c3ccccc3)cc2)NC1=O` [Example 1439] ({CH2CO}-[Dap][4Pal]DWV[Bip]E[Orn][NMeF][Dab][Cha]VTCA-NH2; thioether N-14), for which the IC50 came to 90 nM.

In the case of `CC(C)C[C@@H]1NC(=O)C(CCCNC(=N)N)NC(=O)[C@H](Cc2ccccc2)N(C)C(=O)[C@H](C)N(C)C(=O)[C@H](CCCNC(=N)N)NC(=O)[C@H](Cc2ccc(-c3ccccc3)cc2)NC(=O)[C@H](C(C)C)NC(=O)[C@H](Cc2c[nH]c3ccccc23)NC(=O)[C@H](CC(=O)O)NC(=O)[C@H](Cc2ccc(C(=O)O)cc2)NC(=O)[C@H](Cc2ccccc2)NC(=O)CSC[C@@H](C(=O)NCC(N)=O)NC(=O)[C@H](CO)NC(=O)[C@H](C(C)C)NC1=O` (stereo partly drawn) [Example 1222] ({CH2CO}-F[Phe(4-COOH)]DWV[Bip]R[NMeA][NMeF][ξR]LVSCG-NH2; thioether N-14), the IC50 is 60 nM.

Regarding `CC(C)C[C@@H]1NC(=O)[C@H](CCCNC(=N)N)NC(=O)[C@H](Cc2ccccc2)N(C)C(=O)[C@H](CCCNC(N)=O)NC(=O)[C@H](CCCNC(=N)N)NC(=O)[C@H](Cc2ccc(-c3ccccc3)cc2)NC(=O)[C@H](C(C)C)NC(=O)[C@H](Cc2c[nH]c3ccccc23)NC(=O)[C@H](CC(=O)O)NC(=O)[C@H](Cc2ccc(O)cc2)NC(=O)[C@H](Cc2ccccc2)NC(=O)CSC[C@@H](C(=O)NCC(N)=O)NC(=O)[C@H](CO)NC(=O)[C@H](C(C)C)NC1=O` [Example 1276] ({CH2CO}-FYDWV[Bip]R[Cit][NMeF]RLVSCG-NH2; thioether N-14), the IC50 stood at 840 nM.

`CC(C)C[C@@H]1NC(=O)[C@H](Cc2c[nH]c3ccccc23)NC(=O)[C@H](CC(=O)O)NC(=O)[C@H](Cc2ccc(O)cc2)NC(=O)[C@H](Cc2cccnc2)NC(=O)CSC[C@@H](C(=O)NCC(N)=O)NC(=O)[C@H](CO)NC(=O)[C@H](C(C)C)NC(=O)[C@H](CC(C)C)NC(=O)[C@H](CC(N)=O)NC(=O)CN(C)C(=O)[C@H](C)N(C)C(=O)[C@H](C(C)C)NC(=O)[C@H](Cc2ccc(-c3ccccc3)cc2)NC1=O` [Example 1118] ({CH2CO}-[3Pal]YDWL[Bip]V[NMeA][Sar]NLVSCG-NH2; thioether N-14): the IC50 is 420 nM.

Take `CC(C)C[C@@H]1NC(=O)[C@H](CCCNC(=N)N)NC(=O)[C@H](Cc2ccccc2)N(C)C(=O)[C@H](C)N(C)C(=O)[C@H](CCCNC(=N)N)NC(=O)[C@H](Cc2ccc(-c3ccccc3)cc2)NC(=O)[C@H](C(C)C)NC(=O)[C@H](Cc2c[nH]c3ccccc23)NC(=O)[C@H](CC(=O)O)NC(=O)[C@H](Cc2ccc(O)cc2)NC(=O)[C@H](Cc2ccc(C(N)=O)cc2)NC(=O)CSC[C@@H](C(=O)NCC(N)=O)NC(=O)[C@H](CO)NC(=O)[C@H](C(C)C)NC1=O` [Example 1257] ({CH2CO}-[Phe(4-CONH2)]YDWV[Bip]R[NMeA][NMeF]RLVSCG-NH2; thioether N-14): the IC50 is 80 nM.

With `CC(C)C[C@@H]1NC(=O)[C@H](Cc2c[nH]c3ccccc23)NC(=O)[C@H](CC(=O)O)NC(=O)[C@H](Cc2ccc(O)cc2)NC(=O)[C@H](Cc2ccccc2)NC(=O)CSC[C@@H](C(=O)N[C@@H](C)C(N)=O)NC(=O)[C@H]([C@@H](C)O)NC(=O)[C@H](C(C)C)NC(=O)[C@H](CC(C)C)NC(=O)[C@H](CC(N)=O)NC(=O)[C@H]2CCCN2C(=O)[C@H](CN)NC(=O)[C@H](C(C)C)NC(=O)[C@H](Cc2ccc(-c3ccccc3)cc2)NC1=O` [Example 1405] ({CH2CO}-FYDWL[Bip]V[Dap][dP]NLVTCA-NH2; thioether N-14), the IC50 was 660 nM.

In the case of `CC(C)C[C@@H]1NC(=O)[C@H](Cc2c[nH]c3ccccc23)NC(=O)[C@H](CC(=O)O)NC(=O)[C@H](Cc2ccc(O)cc2)NC(=O)[C@H](Cc2ccccc2)NC(=O)CSC[C@@H](C(=O)N[C@@H](C)C(N)=O)NC(=O)[C@H](CO)NC(=O)[C@H](C(C)C)NC(=O)[C@H](CC2CCCC2)NC(=O)[C@H](CC(N)=O)NC(=O)CN(C)C(=O)[C@H](C)N(C)C(=O)[C@H](C(C)C)NC(=O)[C@H](Cc2ccc(-c3ccccc3)cc2)NC1=O` [Example 1102] ({CH2CO}-FYDWL[Bip]V[NMeA][Sar]N[Ala(cPent)]VSCA-NH2; thioether N-14), the IC50 was 310 nM.

The IC50 is the midpoint of a concentration-inhibition curve.
